“And” between values parts separate entries of the source, which are not always exact repeats. Equal values may be shown once.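 Assay format: 96-well plates, 48-hour exposure. GI50 is the concentration that inhibits growth by half.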 The source made the active and inactive calls. Cut-off read from the data, not from the text of the source: active = GI50 up to about 1.1 µM and inactive = higher.
Tests used:
Test in all cases: NCI-60 cell line screen, 48 h
[1] = test system: MDA-N
[2] = test system: SNB-75
[3] = test system: T47D
[4] = test system: HOP-92
[5] = test system: U-251
[6] = test system: COLO 205
[7] = test system: LOX IMVI
[8] = test system: NCI-H226
[9] = test system: OVCAR-5
[10] = test system: SK-MEL-5
[11] = test system: PC-3
[12] = test system: SW-620
[13] = test system: SK-OV-3
[14] = test system: OVCAR-8
[15] = test system: Malme-3M
[16] = test system: CCRF-CEM
[17] = test system: UACC-62
[18] = test system: A498
[19] = test system: K562
[20] = test system: SR

Measured: GI50

Cc1ccccc1NC(=O)Cc1csc(N/N=C2\NC(=O)/C(=C/c3cccc([N+](=O)[O-])c3)S2)n1
inactive: [1] 30.5 µM | [2] 13.1 µM | [3] 17.1 µM | [4] 15.8 µM | [5] 21.5 µM | [6] 34.2 µM | [7] 30.3 µM | [8] 17.8 µM | [9] 22.6 µM | [10] 23.9 µM | [11] 16.6 µM | [12] 40.6 µM | [13] 53.1 µM | [14] 31.8 µM

CC1OC(OC2C(OC(=O)[C@]34CCC(C)(C)C[C@H]3C3=CC[C@@H]5[C@@]6(C)CC[C@H](OC7OC(C(=O)O)C(O)C(O)C7O)C(C)(C)[C@@H]6CC[C@@]5(C)[C@]3(C)C[C@H]4O)OCC(O)C2O)C(O)C(O)C1OC1OCC(O)C(O)C1O (stereo not given in full)
inactive: [1] 10.6 µM and 13.8 µM | [2] 15.9 µM and 16.9 µM | [3] 22.2 µM and 11.3 µM | [4] 13.8 µM and 11.2 µM | [15] 14.2 µM and 12 µM | [5] 10.4 µM and 15.3 µM | [6] 3.64 µM and 2.32 µM | [7] 15.5 µM and 10.7 µM | [8] 4.57 µM and 7.19 µM | [16] 17.5 µM and 19.9 µM | [9] 10.5 µM and 14.9 µM | [10] 16.8 µM and 18.9 µM | [17] 18.5 µM and 16 µM | [18] 2.54 µM and 1.72 µM | [12] 13 µM and 16.3 µM | [19] 16.4 µM and 14.6 µM | [13] 16.8 µM and 18.9 µM | [20] 7.55 µM and 6.01 µM

N=C(N)C(/N=N\c1ccccc1)C(=N)N (stereo not given)
inactive: [1] 19.5 µM | [3] 46.3 µM | [4] 20.3 µM | [15] 51.1 µM | [5] 24 µM | [6] 29.8 µM | [7] 34 µM | [8] 15 µM | [16] 13.5 µM | [9] 49.7 µM | [10] 28 µM | [17] 34.5 µM | [11] 31.8 µM | [18] 54.5 µM | [12] 34.4 µM | [19] 23.7 µM | [13] 64.6 µM | [14] 95.5 µM

Cc1ccc(/C=N/Nc2ccc3ccccc3n2)s1
inactive: [1] 13.4 µM | [2] > 100 µM | [3] 8.28 µM | [4] 19.1 µM | [15] 14.9 µM | [5] 21.1 µM | [6] 12.9 µM | [7] 17.1 µM | [8] 80.7 µM | [16] > 100 µM | [9] 27.3 µM | [10] 9.4 µM | [17] 34.8 µM | [11] 13.2 µM | [12] 23.2 µM | [19] 16.9 µM | [13] 30.2 µM | [14] 26.7 µM | [20] 22.2 µM

C=CCN(c1cc(OCc2ccccc2)c(NC(C)=O)cc1[N+](=O)[O-])S(C)(=O)=O
inactive: [1] > 100 µM | [2] 20 µM | [3] 29.3 µM | [4] 19.2 µM | [15] 26.7 µM | [6] > 100 µM | [7] 50.6 µM | [8] 12.7 µM | [16] > 100 µM | [9] > 100 µM | [10] > 100 µM | [17] 58.9 µM | [11] > 100 µM | [18] 19.3 µM | [12] > 100 µM | [19] > 100 µM | [13] 17.9 µM | [14] 23.1 µM

COc1cc2oc(=O)ccc2cc1C1OC(=O)C2OC21C (stereo not given)
inactive: [1] > 100 µM | [2] > 100 µM | [3] > 100 µM | [4] > 100 µM | [15] > 100 µM | [5] > 100 µM | [6] > 100 µM | [7] > 100 µM | [8] > 100 µM | [16] > 100 µM | [9] > 100 µM | [10] > 100 µM | [17] > 100 µM | [11] > 100 µM | [12] > 100 µM | [19] > 100 µM | [13] > 100 µM | [14] > 100 µM | [20] > 100 µM

CC1=CC(C)(C)[C@H]2O[C@@]3(O)C[C@]4(C)[C@H]5C[C@@](C(C)C)(O[C@H]4c4ccoc4)O[C@H]4[C@]5(C3)O[C@@]1(O)[C@]24O
inactive: [1] > 100 µM | [2] 12.3 µM | [3] > 100 µM | [4] 83.8 µM | [15] 40.9 µM | [5] 74 µM | [6] > 100 µM | [7] > 100 µM | [8] > 100 µM | [16] > 100 µM | [9] > 100 µM | [10] 44.2 µM | [17] > 100 µM | [11] > 100 µM | [12] > 100 µM | [19] > 100 µM | [13] > 100 µM | [14] > 100 µM | [20] > 100 µM

From ChEMBL document CHEMBL1201862, “PubChem BioAssay data set” (2004)
